The target in one experiment is DNA gyrase (Escherichia coli, UniProt P0AES4+P0AES6). In words: Inhibition of Escherichia coli DNA gyrase using relaxed pNO1 plasmid and biotinylated oligonucelotide incubated for 30 mins by fluorescence based DNA super-coiling assay. The class given is protein-complex assay.
Experiment [1] relates to Escherichia coli. In words: Antibacterial activity against wild type Escherichia coli ATCC 25922 by broth microdilution method. The class given is functional.
The test system of experiment [2] is Escherichia coli. In words: Antibacterial activity against efflux deficient Escherichia coli tolC::Tn10 lacking functional tolC gene by broth microdilution method. On the technique in general: Broth dilution looks for growth in wells or tubes with falling amounts of substance.
Experiment [3] concerns Escherichia coli. In words: Antibacterial activity against Escherichia coli imp4213::Tn10 by broth microdilution method. It counts as functional.
For experiment [4], the system named is Escherichia coli. Kind of experiment: Antibacterial activity against wild type Escherichia coli ATCC 25922 assessed as inhibition of microbial growth at 50 uM by broth microdilution method. It counts as functional. Particulars: read-out: GI.
Experiment [5] deals with Pseudomonas aeruginosa. In words: Antibacterial activity against Pseudomonas aeruginosa ATCC 27853 assessed as inhibition of microbial growth at 50 uM by broth microdilution method. It counts as functional. To be noted: read-out: GI.
In experiment [6] the test system is Enterococcus faecalis. In words: Antibacterial activity against Enterococcus faecalis ATCC 29212 assessed as inhibition of microbial growth at 50 uM by broth microdilution method. It counts as functional. Particulars: read-out: GI.
The subject of experiment [7] is Staphylococcus aureus. Kind of experiment: Antibacterial activity against Staphylococcus aureus 25923 assessed as inhibition of microbial growth at 50 uM by broth microdilution method. It counts as functional. Particulars: read-out: GI.
For experiment [8], the system named is Escherichia coli. In words: Antibacterial activity against wild type Escherichia coli ATCC 25922 assessed as inhibition of microbial growth by broth microdilution method. It counts as functional.
Experiment [9] has as its system Pseudomonas aeruginosa. In words: Antibacterial activity against Pseudomonas aeruginosa ATCC 27853 assessed as inhibition of microbial growth by broth microdilution method. It counts as functional.
Experiment [10] relates to Enterococcus faecalis. In words: Antibacterial activity against Enterococcus faecalis ATCC 29212 assessed as inhibition of microbial growth by broth microdilution method. It counts as functional.
The subject of experiment [11] is Staphylococcus aureus. Kind of experiment: Antibacterial activity against Staphylococcus aureus 25923 assessed as inhibition of microbial growth by broth microdilution method. The class given is functional.
Experiment [12] deals with DNA gyrase (Staphylococcus aureus) (UniProt P0A0K8+P20831). Kind of experiment: Inhibition of Staphylococcus aureus DNA gyrase assessed as residual enzyme activity at 100 uM using relaxed pNO1 plasmid and biotinylated oligonucelotide incubated for 30 mins by fluorescence based DNA super-coiling assay. It counts as protein-complex assay.
Experiment [13] concerns Escherichia coli. In words: Inhibition of Escherichia coli DNA topoisomerase 4 assessed as residual enzyme activity at 100 uM using relaxed pNO1 plasmid and biotinylated oligonucelotide incubated for 30 mins by fluorescence based DNA relaxation assay.
In experiment [14] the target is Topoisomerase IV (Staphylococcus aureus) (UniProt P0C1U9+P0C1S7). Kind of experiment: Inhibition of Staphylococcus aureus DNA topoisomerase 4 assessed as residual enzyme activity at 100 uM using relaxed pNO1 plasmid and biotinylated oligonucelotide incubated for 30 mins by fluorescence based DNA relaxation assay. It counts as protein-complex assay.

Values after ≈ are worked out from the molar mass of the structure shown. Some results are limits rather than exact numbers.

Chain of DNA gyrase (Staphylococcus aureus) (P0A0K8 2-644 limits assumed): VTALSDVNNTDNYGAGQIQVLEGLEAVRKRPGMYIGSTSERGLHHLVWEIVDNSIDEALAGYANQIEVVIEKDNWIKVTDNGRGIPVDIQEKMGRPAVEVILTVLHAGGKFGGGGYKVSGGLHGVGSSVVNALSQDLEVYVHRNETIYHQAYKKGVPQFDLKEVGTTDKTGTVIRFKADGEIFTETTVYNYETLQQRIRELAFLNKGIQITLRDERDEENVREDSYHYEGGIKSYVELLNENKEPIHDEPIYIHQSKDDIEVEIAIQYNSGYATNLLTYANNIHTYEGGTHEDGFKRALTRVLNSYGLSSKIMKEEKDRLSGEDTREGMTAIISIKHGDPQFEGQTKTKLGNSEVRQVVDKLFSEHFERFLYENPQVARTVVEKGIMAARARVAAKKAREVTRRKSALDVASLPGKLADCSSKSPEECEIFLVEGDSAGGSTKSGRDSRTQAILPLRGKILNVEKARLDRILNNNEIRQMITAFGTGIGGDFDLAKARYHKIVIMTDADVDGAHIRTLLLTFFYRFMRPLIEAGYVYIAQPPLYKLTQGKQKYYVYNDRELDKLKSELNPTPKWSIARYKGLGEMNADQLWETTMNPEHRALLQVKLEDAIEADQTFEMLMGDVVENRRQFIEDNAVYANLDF
Chain of DNA gyrase (Staphylococcus aureus) (P20831 whole entry partner): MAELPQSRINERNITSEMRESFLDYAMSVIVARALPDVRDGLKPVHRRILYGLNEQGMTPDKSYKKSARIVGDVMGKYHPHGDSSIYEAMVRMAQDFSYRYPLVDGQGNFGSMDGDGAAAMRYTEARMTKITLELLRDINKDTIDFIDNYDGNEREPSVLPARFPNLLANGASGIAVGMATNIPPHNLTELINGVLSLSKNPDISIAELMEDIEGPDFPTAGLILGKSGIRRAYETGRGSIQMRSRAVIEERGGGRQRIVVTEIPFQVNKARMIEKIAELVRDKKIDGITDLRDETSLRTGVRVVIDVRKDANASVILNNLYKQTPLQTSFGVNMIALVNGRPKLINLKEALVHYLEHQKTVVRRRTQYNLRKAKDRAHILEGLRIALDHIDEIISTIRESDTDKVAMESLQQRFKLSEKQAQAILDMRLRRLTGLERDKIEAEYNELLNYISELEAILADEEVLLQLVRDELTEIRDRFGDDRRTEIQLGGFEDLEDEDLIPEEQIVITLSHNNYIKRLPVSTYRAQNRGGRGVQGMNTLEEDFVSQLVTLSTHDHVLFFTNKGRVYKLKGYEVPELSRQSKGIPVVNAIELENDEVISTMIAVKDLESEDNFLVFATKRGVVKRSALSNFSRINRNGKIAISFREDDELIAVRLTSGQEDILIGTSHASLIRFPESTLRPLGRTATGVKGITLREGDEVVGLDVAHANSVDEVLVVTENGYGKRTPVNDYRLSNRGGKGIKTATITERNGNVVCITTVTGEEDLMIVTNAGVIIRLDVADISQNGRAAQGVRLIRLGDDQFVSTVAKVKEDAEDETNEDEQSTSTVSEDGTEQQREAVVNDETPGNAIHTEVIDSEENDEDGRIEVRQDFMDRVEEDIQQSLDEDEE

At DNA gyrase, `COC(=O)CC(=O)Nc1nc2c(s1)C[C@@H](NC(=O)c1cc3ccccc3[nH]1)CC2` gave an IC50 of 35 µM. Also, the minimal inhibitory concentration (MIC) against Escherichia coli [1] is greater than 256 µg/mL; in the experiment with Escherichia coli [2], greater than 256 µg/mL; in the experiment on Escherichia coli [3] it was greater than 256 µg/mL; with Escherichia coli [8], greater than 125 µM; in the experiment on Pseudomonas aeruginosa [9], greater than 125 µM; in the experiment on Enterococcus faecalis [10], greater than 125 µM. Further, in the experiment on Staphylococcus aureus [11], the MIC is greater than 125 µM. Also, the inhibition of growth at 50 µM with Escherichia coli [4], in the experiment on Pseudomonas aeruginosa [5], with Enterococcus faecalis [6] and with Staphylococcus aureus [7] was less than 50% throughout.
As for `Nc1nc2c(s1)C[C@@H](NC(=O)c1cc(Br)c[nH]1)CC2`, the IC50 at DNA gyrase is 520 µM. Moreover, the inhibition of growth at 50 µM in the experiment on Escherichia coli [4], in the experiment on Pseudomonas aeruginosa [5], in the experiment on Enterococcus faecalis [6] and in the experiment with Staphylococcus aureus [7] was less than 50% in each case. The minimum inhibitory concentration (MIC) in the experiment with Escherichia coli [8], in the experiment on Pseudomonas aeruginosa [9], in the experiment with Enterococcus faecalis [10] and in the experiment on Staphylococcus aureus [11] was greater than 125 µM in each case.
With `Nc1nc2c(s1)C[C@@H](NC(=O)c1cc(Cl)c(Cl)[nH]1)CC2`, it took 12 µM to reach half-maximal inhibition on DNA gyrase (IC50). In addition, the Activity came to 85% in experiment [12], 97% in the experiment on Escherichia coli [13] and 98% in [14]. For the same molecule, the MIC in the experiment on Escherichia coli [1] is greater than 256 µg/mL; in the experiment on Escherichia coli [2], 64 µg/mL (≈ 193 µM); in the experiment with Escherichia coli [3], 64 µg/mL (≈ 193 µM); in the experiment on Escherichia coli [8], greater than 125 µM; in the experiment on Pseudomonas aeruginosa [9], greater than 125 µM; in the experiment on Enterococcus faecalis [10], greater than 125 µM. Also, the MIC in the experiment on Staphylococcus aureus [11] was greater than 125 µM. Further, the inhibition of growth at 50 µM with Escherichia coli [4], in the experiment with Pseudomonas aeruginosa [5], in the experiment on Enterococcus faecalis [6] and in the experiment on Staphylococcus aureus [7] was less than 50% throughout.
In turn, `Nc1ncc2c(n1)CCC(NC(=O)c1cc(Cl)c(Cl)[nH]1)C2` (configuration not stated) yielded an IC50 against DNA gyrase of 5.7 µM. Besides, the Activity in experiment [12] is 90%; in the experiment with Escherichia coli [13] it was 96%; in [14] it was 106%.
`COC(=O)CC(=O)Nc1nc2c(s1)C[C@@H](NC(=O)c1cc(Br)c[nH]1)CC2` yielded a concentration for half-maximal inhibition (IC50) on DNA gyrase of 25 µM. The Activity in [12] was determined as 100%; with Escherichia coli [13], 95%; in experiment [14], 104%. The inhibition of growth at 50 µM in the experiment on Escherichia coli [4], in the experiment on Pseudomonas aeruginosa [5], in the experiment with Enterococcus faecalis [6] and with Staphylococcus aureus [7] was less than 50% in each case. The MIC in the experiment with Escherichia coli [8], in the experiment on Pseudomonas aeruginosa [9], in the experiment on Enterococcus faecalis [10] and with Staphylococcus aureus [11] was greater than 125 µM each time.
In turn, `CCOC(=O)C(=O)Nc1nc2c(s1)C[C@@H](NC(=O)c1cc3ccccc3[nH]1)CC2` displayed an IC50 on DNA gyrase of 10 µM. Moreover, the Activity in experiment [12] amounted to 76%; with Escherichia coli [13], 101%; in [14], 99%. Moreover, the inhibition of growth at 50 µM with Escherichia coli [4], in the experiment on Pseudomonas aeruginosa [5], in the experiment with Enterococcus faecalis [6] and in the experiment on Staphylococcus aureus [7] was less than 50% in each case. Also, the MIC with Escherichia coli [8], with Pseudomonas aeruginosa [9], in the experiment with Enterococcus faecalis [10] and in the experiment on Staphylococcus aureus [11] was greater than 125 µM each time.
As for `Nc1ncc2c(n1)CCC(CNC(=O)c1cc(Br)c(Br)[nH]1)C2` (configuration not stated), at DNA gyrase, 170 µM corresponded to half-maximal inhibition (IC50).
The molecule `COC(=O)CCC(=O)Nc1nc2c(s1)C[C@@H](NC(=O)c1cc3ccccc3[nH]1)CC2` yielded a half-maximal inhibitory concentration (IC50) against DNA gyrase of 9.1 µM. For the same molecule, the Activity in [12] came out at 87%; with Escherichia coli [13], 101%; in experiment [14], 104%. Besides, the inhibition of growth at 50 µM in the experiment on Escherichia coli [4], in the experiment with Pseudomonas aeruginosa [5], in the experiment on Enterococcus faecalis [6] and in the experiment with Staphylococcus aureus [7] was less than 50% in each case. Also, the minimal inhibitory concentration (MIC) with Escherichia coli [8], in the experiment on Pseudomonas aeruginosa [9], in the experiment with Enterococcus faecalis [10] and in the experiment on Staphylococcus aureus [11] was greater than 125 µM in each case.
Turning to `O=C1CCN2C(=N1)SC1=C2CC[C@H](NC(=O)c2cc(Br)c(Br)[nH]2)C1`, the IC50 against DNA gyrase was 12 µM. Also, the MIC is greater than 256 µg/mL in the experiment on Escherichia coli [1]; greater than 256 µg/mL in the experiment on Escherichia coli [2]; greater than 256 µg/mL with Escherichia coli [3]; greater than 125 µM in the experiment with Escherichia coli [8]; greater than 125 µM with Pseudomonas aeruginosa [9]; greater than 125 µM in the experiment with Enterococcus faecalis [10]. The MIC in the experiment with Staphylococcus aureus [11] was greater than 125 µM. Besides, the inhibition of growth at 50 µM in the experiment on Escherichia coli [4], in the experiment with Pseudomonas aeruginosa [5], with Enterococcus faecalis [6] and with Staphylococcus aureus [7] was less than 50% each time.
On to `O=C(O)CC(=O)Nc1nc2c(s1)C[C@@H](NC(=O)c1cc(Br)c[nH]1)CC2`, for which the IC50 against DNA gyrase stood at 14 µM. The Activity in experiment [12] was found to be 110%; in the experiment on Escherichia coli [13] it was 96%; in [14], 97%. The inhibition of growth at 50 µM with Escherichia coli [4], in the experiment on Pseudomonas aeruginosa [5], with Enterococcus faecalis [6] and in the experiment on Staphylococcus aureus [7] was less than 50% each time. The minimal inhibitory concentration (MIC) in the experiment on Escherichia coli [8], in the experiment with Pseudomonas aeruginosa [9], with Enterococcus faecalis [10] and in the experiment with Staphylococcus aureus [11] was greater than 125 µM in each case.
`Nc1nc2c(s1)C[C@@H](NC(=O)c1cc3cc(F)ccc3[nH]1)CC2`: the half-inhibitory concentration (IC50) on DNA gyrase was 270 µM. For the same molecule, the minimal inhibitory concentration (MIC) against Escherichia coli [1] is greater than 256 µg/mL; against Escherichia coli [2], greater than 256 µg/mL; with Escherichia coli [3], greater than 256 µg/mL; in the experiment with Escherichia coli [8], greater than 125 µM; with Pseudomonas aeruginosa [9], greater than 125 µM; with Enterococcus faecalis [10], greater than 125 µM. Also, the minimal inhibitory concentration (MIC) in the experiment on Staphylococcus aureus [11] was greater than 125 µM. The inhibition of growth at 50 µM in the experiment with Escherichia coli [4], in the experiment on Pseudomonas aeruginosa [5], in the experiment on Enterococcus faecalis [6] and in the experiment with Staphylococcus aureus [7] was less than 50% in each case.
Take `Nc1nc2c(s1)CC(CNC(=O)c1cc(Br)c(Br)[nH]1)CC2` (configuration not stated): the IC50 against DNA gyrase amounted to 120 µM.
In turn, `Nc1nc2c(s1)C[C@@H](NC(=O)c1cc3ccccc3[nH]1)CC2` came in with an IC50 against DNA gyrase of 21 µM. Moreover, the Activity worked out at 87% in [12], 103% in the experiment with Escherichia coli [13] and 100% in experiment [14].
`Nc1ncc2c(n1)CCC(NC(=O)c1cc(Br)c[nH]1)C2` (configuration not stated) gave an IC50 against DNA gyrase of 35 µM. Also, the Activity in experiment [12] was 100%; with Escherichia coli [13], 97%; in experiment [14] it was 105%. Moreover, the inhibition of growth at 50 µM with Escherichia coli [4], in the experiment with Pseudomonas aeruginosa [5], with Enterococcus faecalis [6] and with Staphylococcus aureus [7] was less than 50% each time. Also, the minimum inhibitory concentration (MIC) with Escherichia coli [8], in the experiment with Pseudomonas aeruginosa [9], in the experiment on Enterococcus faecalis [10] and in the experiment on Staphylococcus aureus [11] was greater than 125 µM in each case.
As to `Nc1ncc2c(n1)CCC(NC(=O)c1cc3ccccc3[nH]1)C2` (configuration not stated), at DNA gyrase, half-maximal inhibition (IC50) was put at 29 µM. Further, the Activity stood at 119% in experiment [12], 97% with Escherichia coli [13] and 103% in experiment [14]. The inhibition of growth at 50 µM in the experiment on Escherichia coli [4], in the experiment on Pseudomonas aeruginosa [5], with Enterococcus faecalis [6] and in the experiment with Staphylococcus aureus [7] was less than 50% in each case. Moreover, the MIC in the experiment with Escherichia coli [8], in the experiment on Pseudomonas aeruginosa [9], in the experiment with Enterococcus faecalis [10] and in the experiment with Staphylococcus aureus [11] was greater than 125 µM each time.

A word on the IC50: it is the concentration at which inhibition is half-maximal. Low readings indicate greater potency, high ones weaker potency. A word on the MIC: it is the least concentration at which growth counts as inhibited.

The values above are taken from ChEMBL document CHEMBL3588817, “Discovery of 4,5,6,7-Tetrahydrobenzo[1,2-d]thiazoles as Novel DNA Gyrase Inhibitors Targeting the ATP-Binding Site” (J Med Chem, 2015).
